Assay results from US20230346827A1 (priority 2020, published 2023).

System: Mouse motor neurons
Test: Gene expression array and pathway analysis, motor neurons, LMW-DS 0.01 mg/ml 48 h
Assay type: cell-based
Conditions: for number of genes: abolished nutrient effect / number of genes: new effect induced by LMW-DS / number of genes: total / number of genes: enhanced response to nutrients / number of genes: not different from control / Activation z-score / Predicted activation state relative D2 control: motor neurons; for Activation z-score / Predicted activation state relative D2 control: D0 to LMW-DS treatment
Description: For each cell line, n=8 × 25 cm^2 culture flasks were set up. Two flasks were harvested for each cell type on the day of treatment (24 hours after seeding). This represents the Day0 time point. From the remaining flasks, three flasks were treated with Control Medium and three were treated with Culture Medium (CM) containing LMW-DS to give a final concentration of 0.01 mg/ml. Cells from the treated flasks were collected after 48 hours. Therefore the collected data represent (a) untreated cells (Day0 Controls and Day2 Controls) and (b) cells treated with LMW-DS (ILB®, Tikomed AB, Viken, Sweden, WO 2016/076780) for 48 hours (Day2 LMW-DS treated).
The culture medium was prepared according to Table 28.
Medium (see Table 28) was pre-warmed to 37° C. Cells were thawed in a 37° C. water bath for no longer than 2 min. 9 ml of media was gently added drop-wise. The cell suspension was mixed by inverting the tube carefully twice. The cells were counted with a Cellometer. The cells were centrifuged for 5 minutes at 200 x g. Supernatant was removed (to the last 0.5 ml) and cells were gently re-suspended by trituration. The cells from the 8 vials were mixed and distributed equally into the previously coated 25 cm^2 flasks (n=8). Cells were incubated at 37° C. with 5% CO2 for 24 hours before treatment.
LMW-DS was provided at a stock concentration of 20 mg/ml and was kept in a temperature monitored refrigerator at 4° C. A fresh 100x LMW-DS stock (1.0 mg/ml) was prepared in sterile DMEM-F12. The concentrated drug stock was sterile filtered and added to the respective culture media (19.6 ml CM and 0.4 ml LMW-DS stock solution). The Control was made using 19.6 ml CM and 0.4 ml of DMEM-F12. LMW-DS and CM were added to the respective flasks (5 ml each) to reach the 0.01 mg/ml concentration of LMW-DS in each dish with a total of 10 ml CM each.
CM was aspirated into a clean and labelled 15 ml Falcon tube. The flasks (without culture medium) were placed into the -80° C. freezer for 30 minutes. The CM in the Falcon tubes was spun at 3000 x g for 5 minutes. Supernatant was removed and the small pellet was re-suspended in 2.5 ml Trizol:Water (4:1) solution at room temperature (RT, ~22° C.).
Two aliquots of 1 ml lysate were removed from each sample and 200 µl of chloroform was added to each (0.2 ml of chloroform per 1 ml of TRIzol Reagent used during the cell lysis step) and the tube was shaken vigorously. Samples were stored at RT for 2-3 minutes and subsequently centrifuged at 12,000 x g for 15 minutes at 4° C.
The RNA was precipitated from the aqueous phase by adding an equal amount of 100% ethanol. The precipitated RNA was fixed onto a Spin Cartridge, washed twice and dried. The RNA was eluted in 50 µl warm RNase-Free Water. The amount and quality of the purified RNA was measured by Nanodrop. The RNA was stored at -80° C. before transfer to Source Bioscience for Array analysis.
The expression data were downloaded into separate files for each cell line. The ‘Background corrected’ expression is the data from the “gProcessedSignal” of the arrays that is the result of the background signal extracted from the actual signal of the relevant probe. This is the most often used variable in array analysis. The background corrected signal was log2 transformed for all samples for statistical analysis. To reduce the false discovery rate in the samples, the signals that were below ‘expression level’ were removed. The ‘below expression’ level was set at 5 for the log2 transformed expression values.
Based on the expression pattern of the Control probes on each array it was decided to carry out Median Centering for all arrays before analysis to reduce the variability of the results. […]

[1] = pathway analysis of gene expression

sodium salt of dextran sulfate [LMW-DS]
number of differentially expressed genes (D0 control to D2 LMW-DS treated): 315 | number of differentially expressed genes (D0 control to D2 LMW-DS treated (second statement)): 425 | number of genes: abolished nutrient effect (no effect): 177 | number of genes: new effect induced by LMW-DS (no effect): 108 | number of genes: total (no effect): 285 | number of genes: abolished nutrient effect (significant downregulation): 47 | number of genes: enhanced response to nutrients (significant downregulation): 36 | number of genes: new effect induced by LMW-DS (significant downregulation): 375 | number of genes: not different from control (significant downregulation): 104 | number of genes: total (significant downregulation): 562 | number of genes: abolished nutrient effect (significant upregulation): 40 | number of genes: enhanced response to nutrients (significant upregulation): 103 | number of genes: new effect induced by LMW-DS (significant upregulation): 71 | number of genes: not different from control (significant upregulation): 75 | number of genes: total (significant upregulation): 289 | number of genes: abolished nutrient effect (total): 264 | number of genes: enhanced response to nutrients (total): 139 | number of genes: new effect induced by LMW-DS (total): 554 | number of genes: not different from control (total): 179 | number of genes: total (total): 1136 | amyloid-β production [1]: preventing | inhibition of glutamate production [1]: not affected | level of H2O2 [1]: reduced | Activation z-score (upstream regulator AGT): 2.631 | Predicted activation state relative D2 control (upstream regulator AGT): Activated | Activation z-score (upstream regulator BMP4): 0.972 | Predicted activation state relative D2 control (upstream regulator BMP4): More activated relative to control | Activation z-score (upstream regulator BMP6): 0.13 | Predicted activation state relative D2 control (upstream regulator BMP6): More activated relative to control | Activation z-score (upstream regulator BMP7): 1.092 | Predicted activation state relative D2 control (upstream regulator BMP7): More activated relative to control | Activation z-score (upstream regulator INHA): 0.588 | Predicted activation state relative D2 control (upstream regulator INHA): More activated relative to control
